Assay results: the supplement of paper PMC8671470

How the values were obtained:
Conditions in all cases: 72 h
NOMO-1 [1] = test system: NOMO-1
Outline: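 Fifteen myeloid leukaemia cell lines were seeded in RPMI 1640 at densities titrated to the linear growth range and placed in 384-well plates with acoustically pre-printed compounds at five tenfold doses from 1 to 10,000 nM, in duplicate. After 72 h at 37 °C with 5% CO2, luminescent ATP viability was normalised to vehicle and to a positive control at 10 µM, and curves were fitted with a four-parameter log-logistic model. The IC50 was obtained from these fits.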

HL-60 [2] = experiment: area under dose-response curve (viability, 1 nM-10 uM) (fraction (0-1)); higher = more sensitive
Outline: (§1)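 HL-60 cells grown in RPMI 1640 with 10% FBS were rescreened against the full library in 384-well plates, in duplicate, at five tenfold concentrations from 1 to 10,000 nM, alongside DMSO or 100 nM of one of three metabolic inhibitors for 72 h at 37 °C, 5% CO2. Reference wells contained DMSO or 10 μM proteasome inhibitor. Viability was read with CellTiter-Glo and normalised to these reference wells, and where reported, area under the curve was taken from four-parameter log-logistic fits in drc and PharmacoGx.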

KG-1 = experiment: cell viability (% survival relative to DMSO control, bortezomib = 0%); higher = less cytotoxic
Outline: (§2)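 In 384-well plates pre-printed with compounds at 1, 10, 100, 1000 or 10000 nM, duplicate wells received cells from 10 AML and 5 CML lines at densities within the linear growth range. The plates stayed at 37 °C with 5% CO2 for 72 h before CellTiter-Glo luminescence was recorded. Each entry is averaged percent survival. Scaling placed vehicle at 100% and a 10 µM positive control at 0%.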

MOLM-13 = experiment: as above
Outline: as §2

LAMA-84 = experiment: as above
Outline: as §2

K-562 = experiment: as above
Outline: as §2

THP-1 = experiment: as above
Outline: as §2

ML-2 = experiment: as above
Outline: as §2

MV4-11 = experiment: as above
Outline: as §2

BV-173 = experiment: as above
Outline: as §2

HL-60 [3] = experiment: as above
Outline: as §2

SHI-1 = experiment: as above
Outline: as §2

HEL = experiment: as above
Outline: as §2

KCL-22 = experiment: as above
Outline: as §2

NOMO-1 [4] = experiment: as above
Outline: as §2

Mono-Mac-6 = experiment: as above
Outline: as §2

KU-812 = experiment: as above
Outline: as §2

HL-60 [5] = experiment: cell viability (% survival relative to DMSO control); higher = less cytotoxic
Outline: as §1

NS(=O)(=O)c1ccc(NC(=O)Cc2ccccc2)cc1 [4-(2-Phenylacetamido)Benzenesulfonamide]
Conditions	IC50 (cell viability) [µM]
NOMO-1 [1]	> 10

Conditions	area under dose-response curve, co-treatment: AZD3965 100 nM	area under dose-response curve, co-treatment: DMSO vehicle	area under dose-response curve, co-treatment: GSK2194069 100 nM	area under dose-response curve, co-treatment: pictilisib 100 nM	cell viability, 1 nM [%]	cell viability, 10 nM [%]	cell viability, 100 nM [%]	cell viability, 1000 nM [%]	cell viability, 10000 nM [%]
BV-173	–	–	–	–	118	94.8	105	114	92.9
HEL	–	–	–	–	106	108	78.6	99	106
HL-60 [2]	< 0.0301	< 0.0301	< 0.0301	< 0.0301	–	–	–	–	–
HL-60 [3]	–	–	–	–	162	97.6	115	106	89.7
K-562	–	–	–	–	100	99.4	103	112	97.2
KCL-22	–	–	–	–	99.8	102	83.9	108	93.9
KG-1	–	–	–	–	99	106	85.8	90	103
KU-812	–	–	–	–	92.1	99.1	105	105	107
LAMA-84	–	–	–	–	97.4	104	110	97.4	102
ML-2	–	–	–	–	98.7	102	95.6	108	102
MOLM-13	–	–	–	–	95.7	99.9	81	84.6	81.3
MV4-11	–	–	–	–	108	109	95.7	91.3	86.6
Mono-Mac-6	–	–	–	–	87.8	108	95.9	102	96.9
NOMO-1 [4]	–	–	–	–	97.5	102	108	109	107
SHI-1	–	–	–	–	106	105	91.2	102	102
THP-1	–	–	–	–	89.8	105	109	99	87.8

cell viability [%], HL-60 [5]
Conditions	0.001 µM	0.01 µM	0.1 µM	1 µM	10 µM
co-treatment: AZD3965 100 nM	97.2	100	99.29	101	99.6
co-treatment: DMSO vehicle	92.5	94.4	100	100	98.28
co-treatment: GSK2194069 100 nM	104	99.5	99.14	99.4	103
co-treatment: pictilisib 100 nM	101	85.2	94	97.6	92.9

O=c1oc2c(cc1O)oc(=O)c1cc(O)c(O)c(O)c12 [Galloflavin]
Conditions	IC50 (cell viability) [µM]
NOMO-1 [1]	> 10

Conditions	area under dose-response curve, co-treatment: AZD3965 100 nM	area under dose-response curve, co-treatment: DMSO vehicle	area under dose-response curve, co-treatment: GSK2194069 100 nM	area under dose-response curve, co-treatment: pictilisib 100 nM	cell viability, 1 nM [%]	cell viability, 10 nM [%]	cell viability, 100 nM [%]	cell viability, 1000 nM [%]	cell viability, 10000 nM [%]
BV-173	–	–	–	–	91	97.5	99.4	108	118
HEL	–	–	–	–	99.7	98.6	122	106	107
HL-60 [2]	< 0.0301	< 0.0301	< 0.0301	< 0.0301	–	–	–	–	–
HL-60 [3]	–	–	–	–	108	101	114	180	186
K-562	–	–	–	–	107	105	100	116	112
KCL-22	–	–	–	–	103	95.3	102	104	112
KG-1	–	–	–	–	92.7	97.2	114	115	100
KU-812	–	–	–	–	94.8	96	90.7	96.6	105
LAMA-84	–	–	–	–	93.7	95	106	98.2	99.4
ML-2	–	–	–	–	101	95	113	111	115
MOLM-13	–	–	–	–	99.3	120	92	115	119
MV4-11	–	–	–	–	100	102	94.5	106	102
Mono-Mac-6	–	–	–	–	92.9	99.7	113	113	100
NOMO-1 [4]	–	–	–	–	91.8	97.7	99.1	102	106
SHI-1	–	–	–	–	108	105	106	112	104
THP-1	–	–	–	–	98	99.3	101	99.4	108

cell viability [%], HL-60 [5]
Conditions	0.001 µM	0.01 µM	0.1 µM	1 µM	10 µM
co-treatment: AZD3965 100 nM	81.9	97.2	110	112	99.6
co-treatment: DMSO vehicle	102	84.8	104	109	99.28
co-treatment: GSK2194069 100 nM	92.6	84.7	104	105	96.52
co-treatment: pictilisib 100 nM	109	93.7	94.13	107	98.54
